The structures appear in SMILES notation.

This data set has as its system Pseudomonas aeruginosa PAO1 MB9798 (efflux+, IMP-1). Conditions: ratio MITC95 PA 9798/MITC95 PA 9799; imipenem at 2 μg/mL. In a few lines: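 Isogenic PAO1 pair (efflux+ MB9798, efflux− MB9799, both IMP-1) tested by microbroth MIC with fixed imipenem and/or ceftazidime, usually at CLSI breakpoint, plus fixed class A/C inhibitor against AmpC. MBL inhibitor titrated; concentration restoring susceptibility recorded and fold difference between strains taken as efflux extent.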
Consider `Nc1nc2c(-c3ccc(S(=O)(=O)NCC4(O)CCNCC4)c(S(N)(=O)=O)c3-c3nnn[nH]3)cccc2s1` [Example 86, 4-(2-aminobenzo[d]thiazol-4-yl)-N^1-((4-hydroxypiperidin-4-yl)methyl)-3-(1H-tetrazol-5-yl)benzene-1,2-disulfonamide], for which the Efflux ratio amounted to 0.50. Then `NC[C@@H](N)CNS(=O)(=O)c1ccc(-c2cccc3ccc(N)nc23)c(-c2nn[nH]n2)c1S(N)(=O)=O` [Example 376, (R)-4-(2-aminoquinolin-8-yl)-N1-(2,3-diaminopropyl)-3-(2H-tetrazol-5-yl)benzene-1,2-disulfonamide], with 1.00; and `CS(=O)(=O)Nc1nc2c(-c3ccc(S(=O)(=O)N4CCNCC4)c(S(N)(=O)=O)c3-c3nn[nH]n3)cccc2s1` [Example 156, 3-(2-(Methylsulfonamido)benzo[d]thiazol-4-yl)-6-(piperazin-1-ylsulfonyl)-2-(2H-tetrazol-5-yl)benzenesulfonamide], with 2.00. For `N[C@@H](CO)CNS(=O)(=O)c1ccc(-c2cccc(C3N=CN=N3)c2)c(-c2nn[nH]n2)c1S(N)(=O)=O` (stereo partly drawn) [Example 226, N4-((R)-2-amino-3-hydroxypropyl)-2-(2H-tetrazol-5-yl)-3′-(3H-1,2,4-triazol-3-yl)-[1,1′-biphenyl]-3,4-disulfonamide], the Efflux ratio is listed as 2.00. As for `Nc1nc2c(-c3ccc(S(=O)(=O)N[C@H]4CN[C@@H](CO)C4)c(S(N)(=O)=O)c3-c3nnn[nH]3)cccc2[nH]1` [Example 173, 4-(2-amino-1H-benzo[d]imidazol-4-yl)-N^1-((3R,5R)-5-(hydroxymethyl)pyrrolidin-3-yl)-3-(1H-tetrazol-5-yl)benzene-1,2-disulfonamide], the figure is 1.00; as for `Nc1nc2c(-c3ccc(S(=O)(=O)N[C@H]4CN[C@H](CO)C4)c(S(N)(=O)=O)c3-c3nnn[nH]3)cccc2s1` [Example 78, 4-(2-amino-1,3-benzothiazol-4-yl)-N1-[(3R,5S)-5-(hydroxymethyl)pyrrolidin-3-yl]-3-(1H-tetrazol-5-yl)benzene-1,2-disulfonamide], 0.50; as for `NCCNS(=O)(=O)c1ccc(-c2cccc3[nH]cnc23)c(-c2nn[nH]n2)c1S(N)(=O)=O` [Example 199, N^1-(2-aminoethyl)-4-(1H-benzo[d]imidazol-4-yl)-3-(2H-tetrazol-5-yl)benzene-1,2-disulfonamide], 0.55. Then `Nc1nc2c(-c3ccc(S(N)(=O)=O)c(S(N)(=O)=O)c3-c3nn[nH]n3)cccc2o1` [Example 4, 4-(2-aminobenzo[d]oxazol-4-yl)-3-(2H-tetrazol-5-yl)benzene-1,2-disulfonamide], with 1.00.

As for `Nc1nc2c(-c3ccc(S(=O)(=O)NCc4ccccn4)c(S(N)(=O)=O)c3-c3nnn[nH]3)cccc2s1.O=C(O)C(F)(F)F` [Example 106, 2-((4-(2-aminobenzo[d]thiazol-4-yl)-2-sulfamoyl-3-(1H-tetrazol-5-yl)phenylsulfonamido)methyl)pyridin-1-ium 2,2,2-trifluoroacetate], the Efflux ratio is on record as 4.00. As for `CNS(=O)(=O)c1ccc(-c2cccc3sc(N)nc23)c(-c2nn[nH]n2)c1S(N)(=O)=O` [Example 152, 4-(2-aminobenzo[d]thiazol-4-yl)-N1-methyl-3-(2H-tetrazol-5-yl)benzene-1,2-disulfonamide], the figure is 8.00. Then `Nc1nc2cccc(-c3ccc(S(N)(=O)=O)c(S(N)(=O)=O)c3-c3nn[nH]n3)c2[nH]1` [Example 1, 4-(2-amino-3H-benzo[d]imidazol-4-yl)-3-(2H-tetrazol-5-yl)benzene-1,2-disulfonamide], with 0.65; and `NC[C@H](N)CNS(=O)(=O)c1ccc(-c2cccnc2N)c(-c2nn[nH]n2)c1S(N)(=O)=O` [Example 213, (S)-4-(2-aminopyridin-3-yl)-N1-(2,3-diaminopropyl)-3-(2H-tetrazol-5-yl)benzene-1,2-disulfonamide], with 2.00.
